Experimental data as given in ChEMBL document CHEMBL5352493, “Dual inhibitors of ASK1 and PDK1 kinases: Design, synthesis, molecular docking and mechanism studies of N-benzyl pyridine-2-one containing derivatives as anti-fibrotic agents” (Eur J Med Chem, 2023).
Active and inactive are the calls of the source. No cut-off for these calls is given here.

Assays:
[1] = Antiproliferative against HLF1 cells measured after 48 hrs by CCK8 assay; type: toxicity, cell-based; conditions: human, HFL1 cells (description prints HLF1)
HFL1 [2] = experiment: Induction of apoptosis in HLF1 cells assessed as late apoptotic cells at 22.5 uM incubated for 24 hrs measured by annexinV-FITC/PI based flow cytometric analysis (reference value: 0.08%); type: functional, Homo sapiens
HFL1 [3] = experiment: Induction of apoptosis in HLF1 cells assessed as viable cells at 15 uM incubated for 24 hrs measured by annexinV-FITC/PI based flow cytometric analysis (reference value: 88.3%); type: functional; conditions: Homo sapiens, read-out: Activity
HFL1 [4] = experiment: Induction of apoptosis in HLF1 cells assessed as late apoptotic cells at 7.5 uM incubated for 24 hrs measured by annexinV-FITC/PI based flow cytometric analysis (reference value: 0.08%); type: functional, Homo sapiens
HFL1 [5] = experiment: Downregulation of phosphorylated p38 in TGF-beta1 induced HFL1 cells at 7.5 to 15 uM for 24 hrs by Western blotting analysis; type: functional, cell-based; conditions: Homo sapiens, dose 7.5-15 µM
HFL1 [6] = experiment: Induction of apoptosis in HLF1 cells assessed as necrotic cells at 22.5 uM incubated for 24 hrs measured by annexinV-FITC/PI based flow cytometric analysis (reference value: 0%); type: functional, Homo sapiens
HFL1 [7] = experiment: Induction of apoptosis in HLF1 cells assessed as early apoptotic cells at 22.5 uM incubated for 24 hrs measured by annexinV-FITC/PI based flow cytometric analysis (reference value: 11.6%); type: functional, Homo sapiens
HFL1 [8] = experiment: Induction of apoptosis in HLF1 cells assessed as early apoptotic cells at 7.5 uM incubated for 24 hrs measured by annexinV-FITC/PI based flow cytometric analysis (reference value: 11.6%); type: functional, Homo sapiens
[9] = Antiproliferative against rat NRK-49F cells measured after 48 hrs by CCK8 assay; type: toxicity, cell-based
[10] = target: T1, Mitogen-activated protein kinase kinase kinase 5 (Homo sapiens, UniProt Q99683); experiment: Inhibition of human recombinant ASK1 using MBP as substrate preincubated for 1 hr followed by reagent addition incubated for 40 mins by ATP-Glo kinase assay
T1 sequence (Q99683 whole entry): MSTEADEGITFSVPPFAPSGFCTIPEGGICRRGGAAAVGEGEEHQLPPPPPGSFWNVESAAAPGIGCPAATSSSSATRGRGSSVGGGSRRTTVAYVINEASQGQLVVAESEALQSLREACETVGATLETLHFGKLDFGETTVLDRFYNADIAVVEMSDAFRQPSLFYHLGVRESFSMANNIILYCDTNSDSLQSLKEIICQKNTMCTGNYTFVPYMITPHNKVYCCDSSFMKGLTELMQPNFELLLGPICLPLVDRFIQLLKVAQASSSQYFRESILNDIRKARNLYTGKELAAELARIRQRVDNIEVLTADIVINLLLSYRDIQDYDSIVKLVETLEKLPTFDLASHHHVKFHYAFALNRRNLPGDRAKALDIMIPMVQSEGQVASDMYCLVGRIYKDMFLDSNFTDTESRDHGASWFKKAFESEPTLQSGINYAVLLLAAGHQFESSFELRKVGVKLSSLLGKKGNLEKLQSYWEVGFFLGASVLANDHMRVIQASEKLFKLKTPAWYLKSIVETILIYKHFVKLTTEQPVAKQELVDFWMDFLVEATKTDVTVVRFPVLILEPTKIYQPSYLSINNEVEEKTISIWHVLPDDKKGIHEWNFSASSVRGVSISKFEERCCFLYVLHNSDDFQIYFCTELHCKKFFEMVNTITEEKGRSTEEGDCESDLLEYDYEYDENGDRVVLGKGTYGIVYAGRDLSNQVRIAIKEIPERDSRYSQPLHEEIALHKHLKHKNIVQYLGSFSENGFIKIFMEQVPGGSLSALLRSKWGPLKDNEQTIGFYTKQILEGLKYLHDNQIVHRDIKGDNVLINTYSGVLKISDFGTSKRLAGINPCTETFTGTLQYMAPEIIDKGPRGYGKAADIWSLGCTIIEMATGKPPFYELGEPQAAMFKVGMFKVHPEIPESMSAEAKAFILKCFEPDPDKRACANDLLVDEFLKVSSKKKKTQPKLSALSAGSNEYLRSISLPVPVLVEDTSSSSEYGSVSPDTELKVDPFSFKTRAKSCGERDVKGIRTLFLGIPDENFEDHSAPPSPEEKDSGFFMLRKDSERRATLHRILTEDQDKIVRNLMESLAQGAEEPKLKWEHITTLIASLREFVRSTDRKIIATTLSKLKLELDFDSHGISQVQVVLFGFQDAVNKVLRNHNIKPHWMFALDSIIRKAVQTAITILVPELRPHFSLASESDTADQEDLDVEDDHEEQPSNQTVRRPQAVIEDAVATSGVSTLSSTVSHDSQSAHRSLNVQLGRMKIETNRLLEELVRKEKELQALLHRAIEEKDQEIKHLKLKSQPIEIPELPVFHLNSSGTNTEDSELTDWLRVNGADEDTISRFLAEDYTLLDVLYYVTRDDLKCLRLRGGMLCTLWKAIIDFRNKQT

HFL1 [11] = experiment: Antifibrotic activity in TGF-beta1 induced HLF1 cells assessed as decrease in alpha SMA expression level measured at 7.5 to 15 uM after 24 hrs by Western blotting analysis; type: functional, cell-based; conditions: Homo sapiens, dose 7.5-15 µM
HFL1 [12] = experiment: Induction of apoptosis in HLF1 cells assessed as early apoptotic cells at 15 uM incubated for 24 hrs measured by annexinV-FITC/PI based flow cytometric analysis (reference value: 11.6%); type: functional, Homo sapiens
HFL1 [13] = experiment: Induction of apoptosis in HLF1 cells assessed as viable cells at 22.5 uM incubated for 24 hrs measured by annexinV-FITC/PI based flow cytometric analysis (reference value: 88.3%); type: functional; conditions: Homo sapiens, read-out: Activity
HFL1 [14] = experiment: Antifibrotic activity in TGF-beta1 induced HLF1 cells assessed as decrease in phosphorylated smad3 level measured at 7.5 to 15 uM after 24 hrs by Western blotting analysis; type: functional, cell-based; conditions: Homo sapiens, dose 7.5-15 µM
[15] = Antiproliferative against human BEAS-2B cells measured after 48 hrs by CCK8 assay; type: toxicity, cell-based
HFL1 [16] = experiment: Downregulation of phosphorylated JNK in TGF-beta1 induced HFL1 cells at 7.5 to 15 uM for 24 hrs by Western blotting analysis; type: functional, cell-based; conditions: Homo sapiens, dose 7.5-15 µM
HFL1 [17] = experiment: Induction of apoptosis in HLF1 cells assessed as viable cells at 7.5 uM incubated for 24 hrs measured by annexinV-FITC/PI based flow cytometric analysis (reference value: 88.3%); type: functional; conditions: Homo sapiens, read-out: Activity
HFL1 [18] = experiment: Antifibrotic activity in TGF-beta1 induced HLF1 cells assessed as decrease in collagen - I expression level measured at 7.5 to 15 uM after 24 hrs by Western blotting analysis; type: functional, cell-based; conditions: Homo sapiens, dose 7.5-15 µM
[19] = Antiproliferative against rat HSC-T6 cells measured after 48 hrs by CCK8 assay; type: toxicity, cell-based
HFL1 [20] = experiment: Induction of apoptosis in HLF1 cells assessed as late apoptotic cells at 15 uM incubated for 24 hrs measured by annexinV-FITC/PI based flow cytometric analysis (reference value: 0.08%); type: functional, Homo sapiens
HFL1 [21] = experiment: Induction of apoptosis in HLF1 cells assessed as necrotic cells at 15 uM incubated for 24 hrs measured by annexinV-FITC/PI based flow cytometric analysis (reference value: 0%); type: functional, Homo sapiens
HFL1 [22] = experiment: Downregulation of phosphorylated Akt in TGF-beta1 induced HFL1 cells at 7.5 microM for 24 hrs by Western blotting analysis; type: functional, cell-based; conditions: Homo sapiens
HFL1 [23] = experiment: Downregulation of phosphorylated ASK1 in TGF-beta1 induced HFL1 cells at 7.5 to 15 uM for 24 hrs by Western blotting analysis; type: functional, cell-based; conditions: Homo sapiens, dose 7.5-15 µM
HFL1 [24] = experiment: Induction of apoptosis in HLF1 cells assessed as decrease in antiapoptotic Bcl-2 protein at 7.5 to 15 uM for 24 hrs by Western blotting analysis; type: functional, cell-based; conditions: Homo sapiens, dose 7.5-15 µM
HFL1 [25] = experiment: Antifibrotic activity in TGF-beta1 induced HLF1 cells assessed as decrease in phosphorylated smad2 level measured at 7.5 to 15 uM after 24 hrs by Western blotting analysis; type: functional, cell-based; conditions: Homo sapiens, dose 7.5-15 µM
HFL1 [26] = experiment: Induction of apoptosis in HLF1 cells assessed as necrotic cells at 7.5 uM incubated for 24 hrs measured by annexinV-FITC/PI based flow cytometric analysis (reference value: 0%); type: functional, Homo sapiens
HFL1 [27] = experiment: Downregulation of phosphorylated PDK1 in TGF-beta1 induced HFL1 cells at 7.5 to 15 microM for 24 hrs by Western blotting analysis; type: functional, cell-based; conditions: Homo sapiens, dose 7.5-15 µM

O=C(Nc1cccc(-c2nncn2C2CC2)n1)c1cc(-c2cnn(C3CC3)c2)cn(Cc2ccccc2F)c1=O
IC50 at 48 h [1]: 15.2 µM
Activity (HFL1 [2]): 0.104%
viability at 15 µM (HFL1 [3]): 67.6%
Activity (HFL1 [4]): 0.083%
Activity (HFL1 [5]): Active
Activity (HFL1 [6]): 0.015%
Activity (HFL1 [7]): 30.3%
Activity (HFL1 [8]): 28.7%
IC50 at 48 h [9]: 21.1 µM
IC50 [10]: 0.00173 µM
Activity (HFL1 [11]): Dose-Dependent Effect
Activity (HFL1 [12]): 32.3%
viability at 22.5 µM (HFL1 [13]): 69.6%
Activity (HFL1 [14]): Active
IC50 at 48 h [15]: 36 µM
Activity (HFL1 [16]): Active
viability at 7.5 µM (HFL1 [17]): 71.2%
Activity (HFL1 [18]): Dose-Dependent Effect
IC50 at 48 h [19]: 35.5 µM
Activity (HFL1 [20]): 0.079%
Activity (HFL1 [21]): 0%
Activity (HFL1 [22]): Active
Activity (HFL1 [23]): Active
Activity (HFL1 [24]): Active
Activity (HFL1 [25]): Active
Activity (HFL1 [26]): 0%
Activity (HFL1 [27]): Dose-Dependent Effect
